Experimental data as given in patent US5496805A, “Inhibitors of neutral endopeptidase” (priority 1990, dated 1996).
Counter-ions that a name gives are not always drawn.

target: T1, neutral endopeptidase (Rattus norvegicus, UniProt P07861); assay: biochemical; details: enzyme purified from rat kidney; Dns-Gly-Phe-Arg 0.5 mM; pH 7.5; 37°, 30 minutes; inhibitor preincubated 10 minutes
T1 sequence (P07861 1-750): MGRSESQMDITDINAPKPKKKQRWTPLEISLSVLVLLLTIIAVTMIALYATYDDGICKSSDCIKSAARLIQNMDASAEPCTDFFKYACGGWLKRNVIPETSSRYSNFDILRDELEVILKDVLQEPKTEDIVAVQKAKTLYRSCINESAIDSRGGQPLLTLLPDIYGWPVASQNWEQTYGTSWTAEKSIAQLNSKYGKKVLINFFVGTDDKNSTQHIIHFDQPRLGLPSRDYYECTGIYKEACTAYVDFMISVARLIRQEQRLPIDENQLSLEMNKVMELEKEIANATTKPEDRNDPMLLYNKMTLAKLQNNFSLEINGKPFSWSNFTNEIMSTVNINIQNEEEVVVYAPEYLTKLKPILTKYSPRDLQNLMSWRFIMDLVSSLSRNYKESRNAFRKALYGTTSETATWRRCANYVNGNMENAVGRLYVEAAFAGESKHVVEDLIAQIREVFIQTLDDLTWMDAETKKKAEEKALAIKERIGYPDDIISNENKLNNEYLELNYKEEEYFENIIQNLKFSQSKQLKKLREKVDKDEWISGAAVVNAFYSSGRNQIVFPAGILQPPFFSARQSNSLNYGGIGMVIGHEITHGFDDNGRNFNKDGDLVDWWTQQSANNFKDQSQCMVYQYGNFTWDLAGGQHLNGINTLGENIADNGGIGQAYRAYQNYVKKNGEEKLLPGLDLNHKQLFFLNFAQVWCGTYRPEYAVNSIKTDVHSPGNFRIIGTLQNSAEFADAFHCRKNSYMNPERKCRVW
Experimental: The in vitro neutral endopeptidase activity is determined using a fluorometric assay procedure. The assay is based upon the cleavage of the fluorescent dansylated tripeptide Dns-Gly-Phe-Arg to form Dns-Gly. The latter is extracted from the acidified mixture by ethyl acetate and is strongly fluorescent.
The incubation mixture employed for the assay contains the substance Dns-Gly-Phe-Arg (0.5 mM), tris(hydroxymethyl)aminomethane -HCl buffer (pH 7.5, 50 mM), an enzyme preparation in 0.05% Triton X-100, and water or inhibitor diluted to a final volume of 0.25 ml. The enzyme preparation is purified from rat kidney according to the procedure described by Almenoff et al. in Biochemistry Vol. 22, p. 590-599 (1983). The inhibitor is preincubated for 10 minutes with the enzyme preparation and buffer before the reaction is initiated by the addition of the substrate. Incubation is carried out at 37° for 30 minutes and the reaction is stopped by the addition of 0.25 ml. 1N HCl and extraction of the Dns-Gly product into 1.5 ml. of ethyl acetate. Relative fluorescent intensity (RFI) of the ethyl acetate extract is measured using a Ferrand Spectofluorometer at excitation and emission wavelengths of 342 and 508 nm., respectively, corrected for the RFI of a zero-time control, and compared with assays lacking inhibitor.
Runs are made at different concentrations of test compound and by use of a mathematical model the IC50 is determined. The IC50 is the concentration of test compound that inhibits activity of the enzyme by 50%.

| SMILES | IC50 |
| --- | --- |
| CC(C)CC(CS)C(=O)N[C@@H](C)C(=O)N[C@@H](CCCN=C(N)N)C(=O)O (single isomer, unassigned; isomer b) [Example 57, N-[N-[2-(Mercaptomethlyl)-4-methyl-1-oxopentyl]-L-alanyl]-L-arginine (isomer B)] | 28 nM |
| CC(CS)C(=O)N[C@@H](C)C(=O)O (mixture of isomers) [Example 25, (±)-N-(3-Mercapto-2-methyl-1-oxopropyl)-L-alanine, N-cyclohexylcyclohexanamine salt (1:1)] | 120 nM |
| CC(C)CC(CS)C(=O)NCC(=O)O (racemic) [Example 8, (±)-N-[2-(Mercaptomethyl)-4-methyl-1-oxopentyl]-glycine] | 280 nM |
| C[C@H](NC(=O)[C@H](Cc1ccccc1)NC(=O)CS)C(=O)O [Example 60, N-[N-(Mercaptoacetyl)-L-phenylalanyl]-L-alanine] | 31 nM |
| CC(CS)C(=O)N[C@H](C(=O)O)C(C)C (mixture of isomers) [Example 20, (±)-N-(3-Mercapto-2-methyl-1-oxopropyl)-L-valine] | 21 nM |
| CC(C)CC(CS)C(=O)NCCC(=O)N[C@@H](CCCNC(=N)N)C(=O)O (mixture of isomers) [Example 58, (±)-N-[N-[2-(Mercaptomethyl)-4-methyl-1-oxopentyl]-β-alanyl]-L-arginine] | 95 nM |
| CC(C)C[C@H](NC(=O)[C@H](Cc1ccccc1)NC(=O)[C@@H]1CCCC[C@H]1CS)C(=O)O (mixture of isomers) [Example 67, (trans)-N-[N-[[2-(Mercaptomethyl)cyclohexyl]carbonyl]-L-phenylalanyl]-L-leucine] | 970 nM |
| CC(CS)C(=O)N[C@@H](CCC(=O)O)C(=O)O (mixture of isomers) [Example 19, (±)-N-(3-Mercapto-2-methyl-1-oxopropyl)-L-glutamic acid, 1,1-dimethylethanamine salt (1:2)] | 110 nM |
| O=C(N[C@@H](Cc1ccc(O)c(O)c1)C(=O)O)C(CS)Cc1ccccc1 (mixture of isomers) [Example 24, (±)-3-Hydroxy-N-[2-(mercaptomethyl)-1-oxo-3-phenylpropyl]-L-tyrosine, 1,1-dimethylethanamine salt (1:1)] | 47 nM |
| CC(C)CC(CS)C(=O)NCC(=O)N[C@@H](CCC(N)=O)C(=O)O (mixture of isomers) [Example 59, (±)-N^2-[N-[2-(Mercaptomethyl)-4-methyl-1-oxopentyl]-glycyl]-L-glutamine, ammonium salt (1:1)] | 330 nM |
| C[C@H](CS)C(=O)N[C@@H](Cc1ccc(O)c(O)c1)C(=O)O [Example 14, 3-Hydroxy-N-(D-3-mercapto-2-methyl-1-oxopropyl)-L-tyrosine] | 91 nM |
| O=C(CCS)N[C@@H](Cc1ccccc1)C(=O)O [Example 2, N-(3-Mercapto-1-oxopropyl)-L-phenylalanine] | 380 nM |
| CC(C)CC(CS)C(=O)N[C@@H](C)C(=O)N[C@@H](CCCN=C(N)N)C(=O)O (single isomer, unassigned; isomer a) [Example 56, N-[N-[2-(Mercaptomethyl)-4-methyl-1-oxopentyl]-L-alanyl]-L-arginine (isomer A)] | 23 nM |
| CC(CS)C(=O)N[C@@H](CO)C(=O)O (mixture of isomers) [Example 21, (±)-N-(3-Mercapto-2-methyl-1-oxopropyl)-L-serine, N-cyclohexylcyclohexamine salt(1:1)] | 280 nM |
| CC[C@H](C)[C@H](NC(=O)[C@H](C)CS)C(=O)O [Example 43, (S)-N-(3-Mercapto-2-methyl-1-oxopropyl)-L-isoleucine] | 64 nM |
| CC(C)C[C@H](NC(=O)[C@H](C)CS)C(=O)O [Example 40, (S),N-(3-Mercapto-2-methyl-1-oxopropyl)-L-leucine] | 190 nM |
| O=C(O)CCNC(=O)C(CS)Cc1ccccc1 (racemic) [Example 45, (±)-3-[[2-(Mercaptomethyl)-1-oxo-3-phenylpropyl]amino]propanoic acid] | 8.9 nM |
| C[C@H](NC(=O)[C@H](S)Cc1ccccc1)C(=O)N1CCC[C@H]1C(=O)O [Example 65] | 62 nM |
| CC(C)[C@H](NC(=O)CS)C(=O)N[C@@H](Cc1c[nH]c2ccccc12)C(=O)O [lithium salt] | 680 nM |
| O=C(O)CCCCNC(=O)C(CS)Cc1ccccc1 (racemic) [Example 49, (±)-5-[[2-(Mercaptomethyl)-1-oxo-3-phenylpropyl]amino]pentanoic acid] | 22 nM |
| CC(C)C[C@H](NC(=O)[C@H](Cc1ccccc1)NC(=O)[C@@H]1CCCC[C@H]1S)C(=O)O (single isomer, unassigned; isomer a) [Example 68, (trans)-N-[N-[(2-Mercaptocyclohexyl)carbonyl]-L-phenylalanyl]-L-leucine (isomer A)] | 1200 nM |

Next, values leading:

| IC50 | SMILES |
| --- | --- |
| 13 nM | O=C(O)CCNC(=O)[C@H](Cc1ccccc1)N[C@@H](Cc1ccccc1)C(=O)O [Example 78, 3-[[N-[(S)-1-Carboxy-2-phenylethyl]-L-phenylalanyl]-amino]propanoic acid] |
| 14 nM | O=C(O)CCCCCCC(=O)NC(CS)Cc1ccccc1 (stereo not drawn) [Example 71, 8-[[1-(MercaDtomethyl)-2-phenylethyl]amino]-8-oxooctanoic acid] |
| 2.2 nM | CC(C)CC(CS)C(=O)N[C@@H](C)C(=O)O (single isomer, unassigned; isomer b) [Example 13, N-[2-(Mercaptomethyl)-4-methyl-1-oxopentyl]-L-alanine (isomer B)] |
| 20 nM | CCCC[C@H](NC(=O)C(CS)Cc1ccccc1)C(=O)O (single isomer, unassigned; isomer b) [Example 30, N-[2,(Mercaptomethyl)-1-oxo,3-phenylpropyl]-L-norleucine (isomer B)] |
| 13 nM | CC(CS)C(=O)N[C@@H](Cc1ccc(O)cc1)C(=O)O (mixture of isomers) [Example 6, N-(DL-3-Mercapto-2,methyl1-oxopropyl)-L-tyrosine] |
| 9 nM | CC(C)CC(CS)C(=O)N[C@@H](Cc1ccccc1)C(=O)O (mixture of isomers) [Example 33, (±)-N-[2-(Mercaptomethyl)-4-methyl-1-oxopentyl]-L-phenylalanine] |
| 5.3 nM | O=C(N[C@@H](Cc1ccccc1)C(=O)O)C(CS)Cc1ccccc1 (single isomer, unassigned; isomer a) [Example 31, N-[2,(Mercaptomethyl)-1-oxo-3-phenylpropyl]-L-phenylalanine (isomer A)] |
| 12 nM | CC(C)CC(CS)C(=O)N[C@@H](CC(C)C)C(=O)O (mixture of isomers) [Example 34, (±)-N-[2-(Mercaptomethyl)-4-methyl-1-oxopentyl]-L-leucine] |
| 14 nM | CC(CS)C(=O)N[C@@H](Cc1ccccc1)C(=O)O (mixture of isomers) [Example 17, (±)-N-(3-Mercapto-2-methyl-1-oxopropyl)-L-phenylalanine, 1,1-dimethylethanamine salt (1:1)] |
| 6.7 nM | CSCC[C@H](NC(=O)C(CS)Cc1ccccc1)C(=O)O (mixture of isomers) [Example 22, (±)-N-[2-(Mercaptomethyl)-1-oxo-3-phenylpropyl]-L -methionine] |
| 20 nM | O=C(O)CCCCCCCNC(=O)C(CS)Cc1ccccc1 (stereo not drawn) [Example 51, 8-[[2-(Mercaptomethyl)-1-oxo-3-phenylpropyl]amino]-octanoic acid] |
| 3.1 nM | O=C(O)CCCCC(=O)NC(CS)Cc1ccccc1 (stereo not drawn) [Example 70, 6-[[1-(Mercaptomethyl)-2-phenylethyl]amino]-6-oxohexanoic acid] |
